Experimental data: ChEMBL document CHEMBL1144061, “Biologically active triterpene saponins from callus tissue of Polygala amarella” (J Nat Prod, 1999)

Columns and labels:
[1] = Cytotoxicity against human granulocytes upto 100 ug/mL
[2] = Induction of human granulocyte phagocytosis at 10 to 100 ug/mL; format: functional

C[C@H]1O[C@@H](OC(=O)[C@]23CCC(C)(C)C[C@H]2C2=CC[C@@H]4[C@@]5(C)C[C@H](O)C(O[C@@H]6O[C@H](CO)[C@@H](O)[C@H](O)[C@H]6O)[C@@](C)(C(=O)O)[C@@H]5CC[C@@]4(C)[C@]2(CO)CC3)[C@H](O[C@@H]2O[C@H](C)[C@H](O[C@@H]3OC[C@@H](O)[C@H](O[C@@H]4O[C@H](CO)[C@H](O)[C@H](O)[C@H]4O)[C@H]3O)[C@@H](O)[C@H]2O)[C@@H](O[C@@H]2O[C@H](CO)[C@@H](O)[C@H](O)[C@H]2O)[C@H]1O (some centres not stated)
Activity [1]: Non-toxic | Activity [2]: 60%
